ChEMBL document CHEMBL1909046, “DrugMatrix in vitro pharmacology data”

Experiments:
[1] = biological target: Mitogen-activated protein kinase 14 (Homo sapiens, UniProt Q16539); set-up: species or system Escherichia coli;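 further: inhibition of p38alpha enzyme activity in a biochemical kinase assay, with myelin basic protein serving as substrate; in other assays of this panel Not Active means under 50% inhibition at 10 µM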
[2] = DRUGMATRIX: Phorbol Ester radioligand binding (ligand: [3H] PDBu); type: cell membranes, Mus musculus, ICR, Brain, Membrane; conditions: Not Active = under 50% inhibition at 10 µM
[3] = DRUGMATRIX: ATPase, Na+/K+ enzyme inhibition (substrate: ATP); type: tissue-based, Sus scrofa, Heart; conditions: Not Active = under 50% inhibition at 10 µM
[4] = biological target: T1, Alpha-1B adrenergic receptor (Rattus norvegicus, UniProt P15823); assay: DRUGMATRIX: Alpha-1B adrenergic receptor radioligand binding (ligand: prazosin); type: cell membranes, Wistar, Liver, Membrane; conditions: Not Active = under 50% inhibition at 10 µM
T1 sequence (P15823 whole entry): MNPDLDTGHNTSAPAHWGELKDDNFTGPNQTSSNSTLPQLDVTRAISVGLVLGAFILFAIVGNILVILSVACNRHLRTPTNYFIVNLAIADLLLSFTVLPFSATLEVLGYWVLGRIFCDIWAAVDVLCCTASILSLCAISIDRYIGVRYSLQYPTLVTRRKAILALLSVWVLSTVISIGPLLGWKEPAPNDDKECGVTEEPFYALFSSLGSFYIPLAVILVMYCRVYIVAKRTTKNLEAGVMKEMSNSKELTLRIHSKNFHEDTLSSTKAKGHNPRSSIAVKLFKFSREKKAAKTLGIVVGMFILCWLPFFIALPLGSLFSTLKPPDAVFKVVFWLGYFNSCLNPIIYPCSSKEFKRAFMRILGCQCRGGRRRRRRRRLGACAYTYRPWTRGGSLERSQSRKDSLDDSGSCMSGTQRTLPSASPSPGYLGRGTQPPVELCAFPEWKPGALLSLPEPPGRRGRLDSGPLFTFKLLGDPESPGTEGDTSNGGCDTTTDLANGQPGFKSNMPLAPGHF

[5] = biological target: T2, Alpha-1D adrenergic receptor (Homo sapiens, UniProt P25100); type: cell membranes, HEK293, Membrane; conditions: for Ki: read-out: Ki; on all read-outs here: in other assays of this panel Not Active means under 50% inhibition at 10 µM
T2 sequence (P25100 whole entry): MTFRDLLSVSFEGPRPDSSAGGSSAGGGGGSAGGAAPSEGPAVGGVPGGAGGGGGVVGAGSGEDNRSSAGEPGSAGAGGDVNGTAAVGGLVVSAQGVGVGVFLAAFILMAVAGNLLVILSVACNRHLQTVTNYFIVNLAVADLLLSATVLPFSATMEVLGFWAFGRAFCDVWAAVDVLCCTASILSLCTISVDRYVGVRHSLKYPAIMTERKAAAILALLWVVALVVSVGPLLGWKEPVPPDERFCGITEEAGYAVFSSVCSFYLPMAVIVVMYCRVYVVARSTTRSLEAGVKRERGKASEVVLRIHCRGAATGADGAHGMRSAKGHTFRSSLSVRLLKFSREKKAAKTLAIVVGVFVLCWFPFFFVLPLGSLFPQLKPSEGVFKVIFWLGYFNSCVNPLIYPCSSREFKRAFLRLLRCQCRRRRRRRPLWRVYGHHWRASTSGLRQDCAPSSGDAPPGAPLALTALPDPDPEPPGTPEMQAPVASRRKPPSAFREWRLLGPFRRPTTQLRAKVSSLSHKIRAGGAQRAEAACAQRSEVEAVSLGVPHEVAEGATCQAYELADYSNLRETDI

Vasopressin V1a receptor = Vasopressin V1a receptor (Homo sapiens, UniProt P37288); type: cell membranes, Membrane; conditions: hek293; further: in other assays of this panel Not Active means under 50% inhibition at 10 µM
Sequence of Vasopressin V1a receptor (P37288 whole entry): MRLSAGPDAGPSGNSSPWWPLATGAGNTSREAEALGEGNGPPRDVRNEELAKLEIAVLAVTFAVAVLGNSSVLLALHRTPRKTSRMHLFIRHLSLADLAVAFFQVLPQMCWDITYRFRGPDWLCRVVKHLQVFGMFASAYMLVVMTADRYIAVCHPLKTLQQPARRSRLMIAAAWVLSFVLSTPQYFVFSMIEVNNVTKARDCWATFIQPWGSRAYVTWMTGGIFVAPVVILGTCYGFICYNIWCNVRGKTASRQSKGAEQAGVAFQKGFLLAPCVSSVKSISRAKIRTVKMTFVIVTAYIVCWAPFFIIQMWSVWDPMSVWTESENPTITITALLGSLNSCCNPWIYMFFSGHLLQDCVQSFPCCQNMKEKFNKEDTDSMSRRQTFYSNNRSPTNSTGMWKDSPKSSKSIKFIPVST

[6] = DRUGMATRIX: beta-Lactamase enzyme inhibition (substrate: Nitrocefin); set-up: species or system Bacillus cereus; conditions: Not Active = under 50% inhibition at 10 µM

Sequence of Mitogen-activated protein kinase 14 (Q16539 whole entry): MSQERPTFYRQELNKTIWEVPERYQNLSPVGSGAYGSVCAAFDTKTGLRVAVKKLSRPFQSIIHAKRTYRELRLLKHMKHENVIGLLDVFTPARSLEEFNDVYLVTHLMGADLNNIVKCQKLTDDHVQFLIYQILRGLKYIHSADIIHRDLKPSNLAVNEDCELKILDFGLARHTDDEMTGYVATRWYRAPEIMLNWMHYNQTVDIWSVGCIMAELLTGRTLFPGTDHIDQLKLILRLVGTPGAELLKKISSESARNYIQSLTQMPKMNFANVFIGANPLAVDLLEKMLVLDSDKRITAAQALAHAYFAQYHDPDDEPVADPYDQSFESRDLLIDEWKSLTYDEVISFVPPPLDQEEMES

Compound	IC50 [1]	IC50 [2]	Ki [2]	IC50 [3]	Ki [3]	IC50 [4]	IC50 ([5]; hek293)	IC50 (Vasopressin V1a receptor)	IC50 [6]	Ki [6]	IC50 ([5]; read-out: IC50)	Ki [5]
C[C@H]1C[C@H]2[C@@H]3CCC4=CC(=O)C=C[C@]4(C)[C@@]3(F)[C@@H](O)C[C@]2(C)[C@@]1(O)C(=O)CO [BETAMETHASONE]	Not Active	Not Active	Not Active	Not Active	Not Active	Not Active	Not Active	Not Active	Not Active	Not Active	–	–
CC(C)NCC(O)COc1ccc(CC(N)=O)cc1 (centres undefined) [ATENOLOL]	Not Active	Not Active	Not Active	Not Active	Not Active	Not Active	Not Active	Not Active	Not Active	Not Active	–	–
O=C1c2ccccc2C(=O)C1c1ccccc1 [PHENINDIONE]	Not Active	Not Active	Not Active	Not Active	Not Active	Not Active	Not Active	Not Active	Not Active	Not Active	–	–
CCCCCCNC(=O)n1cc(F)c(=O)[nH]c1=O [CARMOFUR]	Not Active	Not Active	Not Active	Not Active	Not Active	Not Active	Not Active	Not Active	Not Active	Not Active	–	–
O=c1[nH]cnc2c1ncn2[C@H]1CC[C@@H](CO)O1 [DIDANOSINE]	Not Active	Not Active	Not Active	Not Active	Not Active	Not Active	Not Active	Not Active	Not Active	Not Active	–	–
CC(=O)Nc1ccc2c(c1)Cc1ccccc1-2 [2-ACETYLAMINOFLUORENE]	Not Active	Not Active	Not Active	Not Active	Not Active	Not Active	Not Active	Not Active	Not Active	Not Active	–	–
CC(C)(c1ccc(O)cc1)c1ccc(O)cc1 [BISPHENOL A]	Not Active	Not Active	Not Active	Not Active	Not Active	Not Active	Not Active	Not Active	Not Active	Not Active	–	–
CO[C@H]1O[C@@H]2O[C@@]3(C)CC[C@H]4[C@H](C)CC[C@@H]([C@H]1C)[C@@]24OO3	Not Active	Not Active	Not Active	Not Active	Not Active	Not Active	Not Active	Not Active	Not Active	Not Active	–	–
C#C[C@]1(O)CC[C@H]2[C@@H]3CCC4=CC(=O)CC[C@@H]4[C@H]3CC[C@@]21C [NORETHINDRONE]	Not Active	Not Active	Not Active	Not Active	Not Active	Not Active	Not Active	Not Active	Not Active	Not Active	–	–
CN(Cc1cc(Br)cc(Br)c1N)C1CCCCC1 [BROMHEXINE]	Not Active	Not Active	Not Active	Not Active	Not Active	Not Active	Not Active	Not Active	Not Active	Not Active	–	–
CC12CCC(CC1=O)C2(C)C (centres undefined) [CAMPHOR]	Not Active	Not Active	Not Active	Not Active	Not Active	Not Active	Not Active	Not Active	Not Active	Not Active	–	–
C[C@@H]1[C@H](O)[C@@H](C)/C=C/C=C/C=C/C=C/C=C/C=C/C=C/[C@H](O[C@@H]2O[C@H](C)[C@@H](O)[C@H](N)[C@@H]2O)C[C@@H]2O[C@](O)(C[C@@H](O)C[C@@H](O)[C@H](O)CC[C@@H](O)C[C@@H](O)CC(=O)O[C@H]1C)C[C@H](O)[C@H]2C(=O)O [AMPHOTERICIN B]	Not Active	Not Active	Not Active	Not Active	Not Active	Not Active	Not Active	Not Active	Not Active	Not Active	–	–
Nc1ccc(Cc2ccc(N)cc2)cc1	Not Active	Not Active	Not Active	Not Active	Not Active	Not Active	Not Active	Not Active	Not Active	Not Active	–	–
CCN(CCO)CCCC(C)Nc1ccnc2cc(Cl)ccc12 (centres undefined) [HYDROXYCHLOROQUINE]	Not Active	Not Active	Not Active	Not Active	Not Active	Not Active	–	Not Active	Not Active	Not Active	4770 nM	2350 nM
O=C(O)COC(=O)Cc1ccccc1Nc1c(Cl)cccc1Cl [ACECLOFENAC]	Not Active	Not Active	Not Active	Not Active	Not Active	Not Active	Not Active	Not Active	Not Active	Not Active	–	–
O=C(O)CCc1nc(-c2ccccc2)c(-c2ccccc2)o1 [OXAPROZIN]	Not Active	Not Active	Not Active	Not Active	Not Active	Not Active	Not Active	Not Active	Not Active	Not Active	–	–
C=CCN1CC[C@]23c4c5ccc(O)c4O[C@H]2/C(=N/N=C2\CC[C@@]4(O)[C@H]6Cc7ccc(O)c8c7[C@@]4(CCN6CC=C)[C@H]2O8)CC[C@@]3(O)[C@H]1C5 [NALOXONAZINE]	Not Active	Not Active	Not Active	Not Active	Not Active	Not Active	Not Active	Not Active	Not Active	Not Active	–	–
O=C(O)CO [GLYCOLIC ACID]	Not Active	Not Active	Not Active	Not Active	Not Active	Not Active	Not Active	Not Active	Not Active	Not Active	–	–
CNC[C@H](O)c1ccc(O)c(O)c1 [EPINEPHRINE]	Not Active	Not Active	Not Active	Not Active	Not Active	–	–	Not Active	Not Active	Not Active	449 nM	221 nM
COc1ccccc1OCCNCC(O)COc1cccc2[nH]c3ccccc3c12 (centres undefined) [CARVEDILOL]	Not Active	Not Active	Not Active	Not Active	Not Active	–	–	Not Active	Not Active	Not Active	1.8 nM	0.883 nM
Cc1cc(C(C)(C)C)c(O)c(C)c1CC1=NCCN1 [OXYMETAZOLINE]	Not Active	Not Active	Not Active	Not Active	Not Active	–	–	Not Active	Not Active	Not Active	–	–
